Experimental data published in patent US20130131321A1, “LIGANDS FOR ANTIBODY AND Fc-FUSION PROTEIN PURIFICATION BY AFFINITY CHROMATOGRAPHY” (GRAFFINITY PHARMACEUTICALS GMBH, priority 2010, published 2013).
Like-named read-outs stand apart in the source and are kept apart here.

Tests used:
[1] = tested on: Tocilizumab; assay: Microtiter plate chromatography of resins, Tocilizumab (bound, yield); assay type: binding, humanized
Protocol: (§1) Resins were assessed in packed mode by microtiter plate chromatography. For each column, approximately 30 μl of resin were transferred to a 384-well filter plate and sealed with appropriate top frits.
(§2) Columns were equilibrated with 6.7 column volumes (cv) of phosphate buffered saline (0.15 M NaCl, 20 mM sodium phosphate, pH 7.3; PBS) prior to injection. Either 3.3 cv of whole IgGs dissolved at 0.75 mg ml^−1, Fab or Fc fragments dissolved at 0.25 mg ml^−1 (all three in PBS) or host cell proteins (HCP) were injected onto columns. Antibody fragments of Bevacizumab (Fab and Fc) were prepared by cleavage of whole IgG with papain protease (3) according to the protocol of the manufacturer. […] Volumes transferred were spun through columns at 50 g for 1-2 min. During injection of samples, acceleration was reduced to 10 g and centrifugation time increased to 5-10 min. Effluent fractions were collected in 384-well plates and concentrations of protein analyzed by Bradford assay. Protein masses mi, mft and me (see below) were calculated as the product of fraction volume and measured protein concentration.
(§3) The fraction of ‘bound’ protein was calculated as the difference between the total mass of protein injected mi and the mass of protein detected in the flowthrough mft, divided by the total mass of protein injected.
(§4) The ‘yield’ of protein was calculated as the mass of protein eluted me, divided by the mass of protein injected mi.
(§5) the fraction of ‘bound’ protein and the ‘yield’ of protein were calculated for each resin based on data for whole IgG-antibodies. In the case of Bevacizumab fragments and host cell proteins, only the fraction of ‘bound’ protein is given. Selectivity of resins was calculated from data for Bevacizumab Whole IgG and host cell proteins. Due to limited experimental precision, selectivity was truncated beyond values of 10.

[2] = tested on: host cell proteins (HCP); assay: Microtiter plate chromatography of resins, host cell proteins (bound); assay type: binding, CHO
Protocol: Flowthrough from protein A chromatography (referred to as host cell proteins) was derived from the supernatant of antibody-producing CHO cell culture in serum-free medium.
as §1, §2, §3, §5

[3] = tested on: Palivizumab; assay: Microtiter plate chromatography of resins, Palivizumab (bound, yield); assay type: binding, humanized
Protocol: as §1, §2, §3, §4, §5

[4] = tested on: human poly-IgG (h-poly-IgG); assay: Microtiter plate chromatography of resins, human poly-IgG (bound, yield); assay type: binding
Protocol: as §1, §2, §3, §4, §5

[5] = tested on: Bevacizumab; assay: Microtiter plate chromatography of resins, Bevacizumab whole IgG (bound, yield, selectivity); assay type: binding, humanized
Protocol: as §1, §2, §3, §4
(§6) The ‘selectivity’ of resins was calculated as the fraction of bound antibody BAb, divided by the fraction of bound host cell proteins BHCP.
as §5

[6] = target: T1, Bevacizumab (Homo sapiens, UniProt P01857); assay: as above; assay type: binding, humanized
T1 construct: fused on or other part: humanised anti-VEGF-A VH domain N-terminal of the gamma-1 constant region (engineered, no UniProt entry)
Protocol: as §1, §2, §3, §4, §6, §5

[7] = fraction of injected protein bound to resin
[8] = fraction of injected host cell proteins bound to resin
[9] = fraction of injected whole IgG bound to resin
[10] = mass eluted / mass injected, whole IgG
[11] = fraction of whole IgG Bevacizumab bound to resin
[12] = mass of whole IgG Bevacizumab eluted / mass injected

SMILES	Tocilizumab Bound (%) [1]	Tocilizumab Yield (%) [1]	HCP Bound (%) ([2]; host cell proteins)	Palivizumab Bound (%) [3]	Palivizumab Yield (%) [3]	h-poly-IgG Bound (%) [4]	h-poly-IgG Yield (%) [4]	Selectivity [5]	Bevacizumab IgG Bound (%) [6, 11]	Bevacizumab IgG Yield (%) [6, 12]	further results
COc1ccc(NC(=O)c2nnc(-c3ccco3)o2)cc1C(=O)NCCOCCOCC(=O)NCCOCCOCC(=O)NCCCN [Ligand L67, 8-{8-{5-[5-(2-Furyl)-1,3,4-oxadiazol-2-ylcarboxamido]-2-methoxyphenylcarboxamido}-3,6-dioxaoctanoylamido}-3,6-dioxaoctanoic acid (3-amino-1-propyl)amide]											Tocilizumab Bound (%) [1, 7]: 91%; Tocilizumab Yield (%) ([1]; mass eluted / mass injected): 86%; HCP Bound (%) [2, 8]: 2%; Palivizumab Bound (%) [3, 7]: 81%; Palivizumab Yield (%) ([3]; mass eluted / mass injected): 80%; h-poly-IgG Bound (%) [4, 7]: 89%; h-poly-IgG Yield (%) ([4]; mass eluted / mass injected): 87%; Selectivity ([5]; bound Bevacizumab whole IgG / bound HCP, truncated beyond values of 10): 10.0; Bevacizumab IgG Bound (%) [6, 9]: 100%; Bevacizumab IgG Yield (%) [6, 10]: 100%
Cn1nc(C(=O)Nc2ccc(O)c(C(=O)NCCCN)c2)cc1-c1ccco1 [Ligand L30, 5-[5-(2-Furyl)-1-methylpyrazol-3-yl]carboxamido-2-hydroxybenzoic acid N-(3-aminopropyl)amide]	83%	79%	42%	68%	66%	74%	53%	2.4	100%	93%	
COc1ccc(NC(=O)c2cn3ccccc3n2)cc1C(=O)NCCCN [Ligand L57, 5-(Imidazo[1,2-a]pyridin-2-ylcarboxamido)-2-methoxybenzoic acid (3-amino-1-propyl)amide]	78%	78%	16%	44%	42%	53%	53%	6.3	100%	90%	
COc1ccc(NC(=O)c2onc3ccccc23)cc1C(=O)NCCCN [Ligand L31, 5-(Benzo[c]isoxazol-3-yl)carboxamido-2-methoxybenzoic acid N-(3-aminopropyl)amide]	100%	98%	23%	99%	94%	95%	74%	4.4	100%	96%	selectivity index ([5]; fraction of bound Bevacizumab whole IgG divided by fraction of bound HCP, truncated beyond 10): 4.4
COc1ccc(NC(=O)c2cc(-c3ccco3)[nH]n2)cc1C(=O)NCCCN [Ligand L20, 5-[5-(2-Furyl)pyrazol-3-yl]carboxamido-2-methoxybenzoic acid N-(3-aminopropyl)amide]	100%	96%	47%	97%	84%	93%	82%	2.1	100%	96%	
COc1ccc(NC(=O)c2cn3ccsc3n2)cc1C(=O)NCCCNC(=O)CCCCCN [Ligand L75, 5-(Imidazo[2,1-b]thiazol-6-ylcarboxamido)-2-methoxybenzoic acid [3-(6-aminohexanoylamido)-1-propyl]amide]								5.7			Tocilizumab Bound (%) [1, 7]: 100%; Tocilizumab Yield (%) ([1]; mass eluted / mass injected): 98%; HCP Bound (%) [2, 8]: 18%; Palivizumab Bound (%) [3, 7]: 91%; Palivizumab Yield (%) ([3]; mass eluted / mass injected): 91%; h-poly-IgG Bound (%) [4, 7]: 90%; h-poly-IgG Yield (%) ([4]; mass eluted / mass injected): 90%; Bevacizumab IgG Bound (%) [6, 9]: 100%; Bevacizumab IgG Yield (%) [6, 10]: 97%
Cn1nc(C(=O)Nc2nc(C(=O)NCCCN)cs2)cc1-c1cccs1 [Ligand L19, 2-[1-Methyl-5-(2-thienyl)pyrazol-3-yl]carboxamidothiazole-4-carboxylic acid N-(3-aminopropyl)amide]	47%	48%	56%	18%	16%	49%	48%	1.8	100%	99%	
